What follows are compounds tested against T1, KRAS G12C 1-169, his-tagged protein, GDP-loaded (Homo sapiens, UniProt P01116, G12C) (assay: Biochemical assay: covalent binding to KRAS G12C analyzed by mass spectrometry). Details: compounds 1-47, measured at 24 h.
T1 construct: KRAS G12C 1-169, his-tagged protein, GDP-loaded
Also: test concentration or dose not given here.

T1 sequence (P01116 1-169 isoform P01116-2 G12C): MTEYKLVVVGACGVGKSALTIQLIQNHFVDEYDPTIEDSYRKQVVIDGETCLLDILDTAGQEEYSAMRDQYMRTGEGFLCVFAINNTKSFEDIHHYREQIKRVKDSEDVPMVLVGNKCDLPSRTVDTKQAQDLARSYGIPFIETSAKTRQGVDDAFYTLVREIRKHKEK

SMILES	Binding %
C=CC(=O)N1CCN(c2ncnc3cc(Cl)c(-c4ccc(Cl)cc4)cc23)CC1C(N)=O (centres unmarked) [Compound I-44, 1-acryloyl-4-(7-chloro-6-(4-chlorophenyl)quinazolin-4-yl)piperazin-2-carboxamide]	+++ (+++indicates binding activity greater than 50% and up to 75%)
C=CC(=O)N1CCN(c2ncnc3cc(Cl)c(-c4ccc(Cl)cc4)cc23)CC1C#N (centres unmarked) [Compound I-47, 1-acryloyl-4-(7-chloro-6-(4-chlorophenyl)quinazolin-4-yl)piperazine-2-carbonitrile]	++++ (++++indicates binding activity greater than 75%)
C=CS(=O)(=O)N1CCN(c2ncnc3cc(Cl)c(-c4ccc(Cl)cc4)cc23)CC1 [Compound I-45, 7-chloro-6-(4-chlorophenyl)-4-(4-(vinylsulfonyl)piperazin-1-yl)quinazoline]	+ (+indicates binding activity from 5% to 25%)
C=CC(=O)N1CCN(c2nccc3cc(Cl)c(-c4ccc(Cl)cc4)cc23)CC1 [Compound I-37, 1-(4-(6-chloro-7-(4-chlorophenyl)isoquinolin-1-yl)piperazin-1-yl)prop-2-en-1-one]	++ (++indicates binding activity greater than 25% and up to 50%)
C=CC(=O)N1CCN(c2ncnc3cc(Cl)c(-c4ccccc4C#N)cc23)CC1 [Compound I-8, 2-(4-(4-acryloylpiperazin-1-yl)-7-chloroquinoazlin-6-yl)benzonitrile]	++ (++indicates binding activity greater than 25% and up to 50%)

Same assay, conditions: compounds 48-246, measured at 2 h

SMILES	Binding %
C=CC(=O)N1CCN(c2nccc3cc(Cl)ccc23)CC1C#N (centres unmarked) [Compound I-61, 1-acryloyl-4-(6-chloroisoquinolin-1-yl)piperazine-2-carbonitrile]	+ (+indicates binding activity from 5% to 25%)
C=CC(=O)N1CCN(c2ncnc3cc(-c4cccc(C(=O)N(C)C)c4F)c(Cl)cc23)CC1 [Compound I-131, 3-(4-(4-acryloylpiperazin-1-yl)-6-chloroquinazolin-7-yl)-2-fluoro-N,N-dimethylbenzamide]	+ (+indicates binding activity from 5% to 25%)
C=CC(=O)N1CCN(c2ncnc3cc(-c4ccccc4)c(Cl)cc23)CC1C(N)=O (centres unmarked) [Compound I-104, 1-acryloyl-4-(6-chloro-7-phenylquinazolin-4-yl)piperazine-2-carboxamide]	+++ (+++indicates binding activity greater than 50% and up to 75%)
C=CC(=O)N1CCN(c2c(C#N)cnc3cc(-c4cccc5ccccc45)c(Cl)cc23)CC1 [Compound I-171, 4-(4-acryloylpiperazin-1-yl)-6-chloro-7-(naphthalen-1-yl)quinolin-3-carbonitrile]	+++ (+++indicates binding activity greater than 50% and up to 75%)
C=CC(=O)N1CCN(c2ncnc3cc(-c4ccc(Cl)cc4Cl)c(Cl)cc23)CC1 [Compound I-102, 1-(4-(6-chloro-7-(2,4-dichlorophenyl)quinazolin-4-yl)piperazin-1-yl)prop-2-en-1-one]	+++ (+++indicates binding activity greater than 50% and up to 75%)
C=CC(=O)N1CCN(c2ncnc3cc(-c4ccccc4)c(C4CC4)cc23)CC1 [Compound I-86, 1-(4-(6-cyclopropyl-7-phenylquinazolin-4-yl)piperazin-1-yl)prop-2-en-1-one]	+ (+indicates binding activity from 5% to 25%)
C=CC(=O)N1CCN(c2ncnc3cc(Cl)c(-c4cccs4)cc23)CC1C#N (centres unmarked) [Compound I-51, 1-acryoyl-4-(7-chloro-6-(thiophen-2-yl)quinazaolin-4-yl)piperazine-2-carbonitrile]	++++ (++++indicates binding activity greater than 75%)
C=CC(=O)N1CCN(c2ncnc3c(F)c(-c4cc(O)ccc4Cl)c(Cl)cc23)CC1 [Compound I-217, 1-(4-(6-chloro-7-(2-chloro-5-hydroxyphenyl)-8-fluoroquinazolin-4-yl)piperazin-1-yl)prop-2-en-1-one]	+++ (+++indicates binding activity greater than 50% and up to 75%)
C=CC(=O)N1CCN(c2ncnc3cc(-c4cccc5cncnc45)c(Cl)cc23)CC1 [Compound I-180, 1-(4-(6-chloro-7,8′-biquinazolin-4-yl)piperazin-1-yl)prop-2-en-1-one]	+ (+indicates binding activity from 5% to 25%)
C=CC(=O)N1CCN(c2ncnc3cc(-c4ccccc4C(F)(F)F)c(Cl)cc23)CC1C (centres unmarked) [Compound I-124, 1-(4-(6-chloro-7-(2-(trifluoromethyl)phenyl)quinazolin-4-yl)-2-methylpiperazin-1-yl)prop-2-en-1-one]	+++ (+++indicates binding activity greater than 50% and up to 75%)
C=CC(=O)N1CCN(c2ncnc3cc(-c4cccc5ccccc45)c(Cl)cc23)CC1 [Compound I-123, 1-(4-(6-chloro-7-(naphthalen-1-yl)quinazolin-4-yl)piperazin-1-yl)prop-2-en-1-one]	++++ (++++indicates binding activity greater than 75%)
C=CC(=O)N1CCN(c2ncnc3cc(Cl)c(-c4ccc(Cl)cc4)cc23)C[C@H]1C#N [Compound I-59, (S)-1-acryloyl-4-(7-chloro-6-(4-chlorophenyl)quinazolin-4-yl)piperazine-2-carbonitrile]	++++ (++++indicates binding activity greater than 75%)

Same assay, conditions: compounds 247-342, measured at 30 min

SMILES	Binding %
C=CC(=O)N1CCN(c2ncnc3c(F)c(-c4c(O)cccc4F)c(C(F)(F)F)cc23)CC1 [Compound I-273, 1-(4-(8-fluoro-7-(2-dluoro-6-hydroxyphenyl)-6-(trifluoromethyl)quinaozlin-4-yl)piperazin-1-yl)prop-2-en-1-one]	++++ (++++indicates binding activity greater than 75%)
C=CC(=O)N1CCN(c2nc(OC3CCOC3)nc3cc(-c4c(C)ccc5[nH]ncc45)c(Cl)cc23)CC1 (centres unmarked) [Compound 300, 1-(4-(6-chloro-7-(5-methyl-1H-indazol-4-yl)-2-(tetrahydrofuran-3-yloxy)quinazolin-4-yl)piperazin-1-yl)prop-2-en-1-one]	++ (++indicates binding activity greater than 25% and up to 50%)
C=CC(=O)N1CCN(c2nc(N(C)C)nc3c(F)c(-c4c(C)ccc5[nH]ncc45)c(Cl)cc23)CC1 [Compound 338, 1-(4-(6-chloro-2-(dimethylamino)-8-fluoro-7-(5-methyl-1H-indazol-4-yl)quinazolin-4-yl)piperazin-1-yl)prop-2-en-1-one]	++ (++indicates binding activity greater than 25% and up to 50%)
C=CC(=O)N1CCN(c2ncnc3cc(-c4cc(C(C)(C)O)ccc4F)c(Cl)cc23)CC1 [Compound I-267, 1-(4-(6-chloro-7-(2-fluoro-5-(2-hydroxypropan-2-yl)phenyl)quinazolin-4-yl)piperazin-1-yl)prop-2-en-1-one]	+ (+indicates binding activity from 5% to 25%)
C=CC(=O)N1CCN(c2ncnc3cc(-c4c(O)cccc4C#N)c(Cl)cc23)CC1 [Compound I-265, 2-(4-(4-acryloylpiperazin-1-yl)-6-chloroquinazolin-7-yl)-3-hydroxybenzonitrile]	+ (+indicates binding activity from 5% to 25%)
C=CC(=O)N1CCN(c2cnnc3cc(-c4c(O)ccc5ccccc45)c(Cl)cc23)CC1 [Compound I-258, 1-(4-(6-chloro-7-(2-hydroxynaphthalen-1-yl)cinnolin-4-yl)piperazin-1-yl)prop-2-en-1-one]	++ (++indicates binding activity greater than 25% and up to 50%)
C=CC(=O)N1CCN(c2ncnc3cc(-c4c(C)ccc5cn[nH]c45)c(Cl)cc23)CC1 [Compound I-268, 1-(4-(6-chloro-7-(6-methyl-1H-indazol-7-yl)quinazolin-4-yl)piperazin-1-yl)prop-2-en-1-one]	+++ (+++indicates binding activity greater than 50% and up to 75%)
C=CC(=O)N1CCN(c2ncnc3cc(-c4c(Cl)ccc5[nH]ncc45)c(Cl)cc23)CC1 [Compound I-266, 1-(4-(6-chloro-7-(5-chloro-1H-indazol-4-yl)quinazolin-4-yl)piperazin-1-yl)prop-2-en-1-one]	+++ (+++indicates binding activity greater than 50% and up to 75%)
C=CC(=O)N1CCN(c2c(C#N)cnc3c(F)c(-c4cc(O)cc5ccccc45)c(Cl)cc23)CC1 [Compound I-291, 4-(4-acryloylpiperazin-1-yl)-6-chloro-8-fluoro-7-(3-hydroxynaphthalen-1-yl)quinoline-3-carbonitrile]	++++ (++++indicates binding activity greater than 75%)

Same assay, conditions: determined at 24 hrs

SMILES	Binding %
C=CC(=O)N1CC(N2CCN(C(=O)CNc3cc(Cl)c(Cl)cc3O)CC2)C1 [II-1, 1-(3-(4-(2-(4,5-dichloro-2-hydroxyphenyl-amino)acetyl)-piperazin-1-yl)azetidin-1-yl)prop-2-en-1-one]	++++ (++++indicates binding activity greater than 50%)
C=CC(=O)N1CC(N2CCN(C(=O)Cc3c[nH]c4ccccc34)CC2)C1 [II-25, 1-(3-(4-(2-(1H-indol-3-yl)acetyl)piperazin-1-yl)azetidin-1-yl)prop-2-en-1-one]	+ (+indicates binding activity from 5% to 15%)
C=CC(=O)N1CC(N2CCN(C(=O)Cc3cccc4ccccc34)CC2)C1 [II-24, 1-(3-(4-(2-(naphthalen-1-yl)acetyl)piperazin-1-yl)azetidin-1-yl)prop-2-en-1-one]	+ (+indicates binding activity from 5% to 15%)
C=CC(=O)N1CC(N2CCN(C(=O)CNc3cc(C4CC4)c(Cl)cc3O)CC2)C1 [II-35, 1-(3-(4-(2-(4-chloro-5-cyclopropyl-2-hydroxyphenyl-amino)acetyl)piperazin-1-yl)azetidin-1-yl)prop-2-en-1-one]	++++ (++++indicates binding activity greater than 50%)
C=CC(=O)N1CC(N2CCN(C(=O)CNc3cc(Cl)c(Cl)c(C(N)=O)c3)CC2)C1 [II-44, 5-(2-(4-(1-acryloylazetidin-3-yl)piperazin-1-yl)-2-oxoethylamino)-2,3-dichlorobenzamide]	+ (+indicates binding activity from 5% to 15%)
C=CS(=O)(=O)N1CCN(C2CN(C(=O)CNc3cc(Cl)c(Cl)cc3O)C2)CC1 [II-40, 2-(4,5-dichloro-2-hydroxyphenylamino)-1-(3-(4-(vinylsulfonyl)-piperazin-1-yl)azetidin-1-yl)ethanone]	++++ (++++indicates binding activity greater than 50%)
